Measurements: patent publication US20110190365A1, “Insecticidal 4-phenyl-1H-pyrazoles” (Bayer Crop Science AG, priority 2008, published 2011)

Experiment: log P by HPLC on a reversed-phase column (C18), EEC Directive 79/831 Annex V.A8
Assay type: physicochemical
Conditions: HCOOH
Method: The stated log P values were determined in accordance with EEC Directive 79/831 Annex V.A8 by HPLC (High Performance Liquid Chromatography) using a reversed-phase column (C18).
In the case of `Cc1cc(-n2nc(C(F)(F)F)c(-c3cc(Cl)cc(Cl)c3)c2N)ccc1C(=O)NCc1ccc(C(F)(F)F)cn1` [I-A-Q2-233], the “log P (HCOOH)” value was “I-A-Q2-233: log P (HCOOH): 4.40”. For `Cc1cc(-n2nc(C(F)(F)F)c(-c3ccc(C#N)cc3)c2N)ccc1C(=O)NCc1ccccn1` [I-A-Q2-349], the “log P (HCOOH)” value was “I-A-Q2-349: log P (HCOOH): 2.04”. With `Cc1cc(-n2nc(C)c(-c3ccccc3Cl)c2N)ccc1C(=O)NCC(F)(F)C(F)F` [I-A-Q2-333] the “log P (HCOOH)” value was “I-A-Q2-333: log P (HCOOH): 2.59”. In the case of `Cc1nn(-c2ccc(C(=O)NC(C)C(F)(F)F)cc2)c(Br)c1-c1cccc(Cl)c1` (stereo not shown) [I-A-Q2-098], the “log P (HCOOH)” value was “I-A-Q2-098: log P (HCOOH): 4.36”. In the case of `Cc1cc(-n2nc(C(F)(F)Cl)c(-c3cc(Cl)cc(C(F)(F)F)c3)c2N)ccc1C(=O)NCC(F)(F)C(F)F` [I-A-Q2-322], the “log P (HCOOH)” value was “I-A-Q2-322: log P (HCOOH): 4.34”. In the case of `CC(NC(=O)c1ccc(-n2nc(C(F)(F)F)c(-c3ccc(Cl)c(Cl)c3)c2N)cc1)c1ccccn1` (stereo not shown) [I-A-Q2-160], the “log P (HCOOH)” value was “I-A-Q2-160: log P (HCOOH): 3.23”. In the case of `Cc1cc(-n2nc(C(F)(F)F)c(-c3cc(Cl)cc(Cl)c3)c2N)ccc1C(=O)NCC1CCCCC1` [I-A-Q2-263], the “log P (HCOOH)” value was “I-A-Q2-263: log P (HCOOH): 5.08”. In the case of `CCC(C)C(NC(=O)c1ccc(-n2nc(C(F)(F)F)c(-c3cc(Cl)cc(Cl)c3)c2N)cc1)C(F)(F)F` (stereo not shown) [I-A-Q2-072], the “log P (HCOOH)” value was “I-A-Q2-072: log P (HCOOH): 5.22”. With `Cc1cc(-n2nc(C(F)(F)F)c(-c3cc(Cl)cc(Cl)c3)c2N)ccc1C(=O)NC(C)c1ccc(F)cc1` (stereo not shown) [I-A-Q2-247] the “log P (HCOOH)” value was “I-A-Q2-247: log P (HCOOH): 4.57”. In the case of `Cc1cc(-n2nc(C)c(-c3c(F)cccc3Cl)c2N)ccc1C(=O)NCC(F)(F)C(F)F` [I-A-Q2-334], the “log P (HCOOH)” value was “I-A-Q2-334: log P (HCOOH): 2.59”. For `CC(C)(CC(F)(F)F)NC(=O)c1ccc(-n2nc(C(F)(F)F)c(-c3cc(Cl)cc(Cl)c3)c2N)cc1` [I-A-Q2-069], the “log P (HCOOH)” value was “I-A-Q2-069: log P (HCOOH): 4.83”. In the case of `Cc1cc(-n2nc(C(F)(F)F)c(Cl)c2N)ccc1C(=O)O` [XI-A-085], the “log P (HCOOH)” value was “XI-A-085: log P (HCOOH): 1.95”. For `Nc1c(-c2cc(F)cc(Cl)c2)c(C(F)(F)F)nn1-c1ccc(C(=O)NC2CC2)cc1` [I-A-Q2-092], the “log P (HCOOH)” value was “I-A-Q2-092: log P (HCOOH): 3.27”. In the case of `Cc1cc(-n2nc(C)c(-c3ccc(Cl)cc3)c2N)ccc1C(=O)NCc1ccccn1` [I-A-Q2-366], the “log P (HCOOH)” value was “I-A-Q2-366: log P (HCOOH): 1.91”. In the case of `Cc1cc(-n2nc(C(F)(F)F)c(-c3cc(Cl)cc(Cl)c3)c2N)ccc1C(=O)NCc1ncc(C(F)(F)F)cc1Cl` [I-A-Q2-230], the “log P (HCOOH)” value was “I-A-Q2-230: log P (HCOOH): 4.89”. With `CC(NC(=O)c1ccc(-n2nc(C(F)(F)F)c(-c3ccc(Cl)cc3)c2N)cc1)c1ccccn1` (stereo not shown) [I-A-Q2-165] the “log P (HCOOH)” value was “I-A-Q2-165: log P (HCOOH): 2.72”. For `Cc1cc(-n2nc(C(F)(F)F)c(-c3cc(Cl)cc(Cl)c3)c2N)ccc1C(=O)NC1CCC1` [I-A-Q2-239], the “log P (HCOOH)” value was “I-A-Q2-239: log P (HCOOH): 4.17”. With `CC(NC(=O)c1ccc(-n2nc(C(F)(F)F)c(-c3ccc(Cl)c(F)c3)c2N)cc1)C(F)(F)F` (stereo not shown) [I-A-Q2-169] the “log P (HCOOH)” value was “I-A-Q2-169: log P (HCOOH): 3.78”. In the case of `CC(C)NC(=O)c1ccc(-n2nc(C(F)(F)F)c(-c3cccc(F)c3)c2N)cc1` [I-A-Q2-181], the “log P (HCOOH)” value was “I-A-Q2-181: log P (HCOOH): 2.98”. In the case of `Cc1cc(-n2nc(C(F)(F)F)c(-c3cc(Cl)cc(Cl)c3)c2N)ccc1C(=O)NCCc1ncc(C(F)(F)F)cc1Cl` [I-A-Q2-232], the “log P (HCOOH)” value was “I-A-Q2-232: log P (HCOOH): 4.95”. In the case of `CNC(=O)c1ccc(-n2nc(C(F)(F)F)c(-c3cccc(Cl)c3)c2N)cc1` [I-A-Q2-094], the “log P (HCOOH)” value was “I-A-Q2-094: log P (HCOOH): 2.76”. With `Cc1cnc(CNC(=O)c2ccc(-n3nc(C(F)(F)F)c(-c4cc(Cl)cc(Cl)c4)c3N)cc2C)cn1` [I-A-Q2-265] the “log P (HCOOH)” value was “I-A-Q2-265: log P (HCOOH): 3.63”. In the case of `Cc1cc(-n2nc(C)c(-c3ccc(Cl)c(Cl)c3)c2N)ccc1C(=O)NCc1ccccn1` [I-A-Q2-365], the “log P (HCOOH)” value was “I-A-Q2-365: log P (HCOOH): 2.27”. With `Cc1cc(-n2nc(C(F)(F)F)c(-c3cc(Cl)cc(Cl)c3)c2N)ccc1C(=O)NC1CCS(=O)(=O)C1` (stereo not shown) [I-A-Q2-218] the “log P (HCOOH)” value was “I-A-Q2-218: log P (HCOOH): 3.33”. In the case of `Cc1cc(C)nc(CNC(=O)c2ccc(-n3nc(C(F)(F)F)c(-c4cc(Cl)cc(Cl)c4)c3N)cc2C)n1` [I-A-Q2-245], the “log P (HCOOH)” value was “I-A-Q2-245: log P (HCOOH): 3.89”. In the case of `Cc1cc(-n2nc(C(F)(F)F)c(-c3ccc(Cl)cc3Cl)c2N)ccc1C(=O)NCc1ncccn1` [I-A-Q2-411], the “log P (HCOOH)” value was “I-A-Q2-411: log P (HCOOH): 3.17”. In the case of `CCNC(=O)c1ccc(-n2nc(C(F)(F)F)c(-c3cc(Cl)cc(Cl)c3)c2N)cc1` [I-A-Q2-142], the “log P (HCOOH)” value was “I-A-Q2-142: log P (HCOOH): 3.77”. In the case of `Cc1cc(-n2nc(C(F)(F)F)c(-c3cc(Cl)cc(Cl)c3)c2N)ccc1C(=O)NC(=C(Cl)C#N)C(F)(F)F` [I-A-Q2-047], the “log P (HCOOH)” value was “I-A-Q2-047: log P (HCOOH): 4.94”. For `Cc1cc(-n2nc(-c3ccccc3)c(-c3ccc(Cl)cc3)c2N)ccc1C(=O)NCC(F)(F)C(F)F` [I-A-Q2-337], the “log P (HCOOH)” value was “I-A-Q2-337: log P (HCOOH): 3.80”. For `COc1ccc(CNC(=O)c2ccc(-n3nc(C(F)(F)F)c(-c4cc(Cl)cc(Cl)c4)c3N)cc2C)nc1` [I-A-Q2-032], the “log P (HCOOH)” value was “I-A-Q2-032: log P (HCOOH): 3.63”. With `Cc1cc(-n2nc(C(F)(F)F)c(-c3cc(Cl)cc(Cl)c3)c2N)ccc1C(=O)NC(C)C` [I-A-Q2-229] the “log P (HCOOH)” value was “I-A-Q2-229: log P (HCOOH): 4.05”. In the case of `CSc1cc(-n2nc(C(C)(C)C)c(-c3cc(Cl)cc(Cl)c3)c2N)ccc1C(=O)NCc1ccccn1` [I-A-Q2-408], the “log P (HCOOH)” value was “I-A-Q2-408: log P (HCOOH): 3.68”. In the case of `Cc1cc(-n2nc(C3CC3)c(-c3ccc(Cl)cc3)c2N)ccc1C(=O)NCC(F)(F)C(F)F` [I-A-Q2-341], the “log P (HCOOH)” value was “I-A-Q2-341: log P (HCOOH): 3.46”. In the case of `Cc1cc(-n2nc(C(F)(F)Oc3ccc(Cl)cc3)c(-c3cc(Cl)cc(C(F)(F)F)c3)c2N)ccc1C(=O)NCC(F)(F)C(F)F` [I-A-Q2-294], the “log P (HCOOH)” value was “I-A-Q2-294: log P (HCOOH): 4.95”. For `CC(NC(=O)c1ccc(-n2nc(C(F)(F)F)c(-c3cccc(Cl)c3)c2N)cc1)c1ccccn1` (stereo not shown) [I-A-Q2-087], the “log P (HCOOH)” value was “I-A-Q2-087: log P (HCOOH): 2.80”. For `Cc1cc(-n2nc(C(F)(F)F)c(-c3cc(Cl)cc(Cl)c3)c2N)ccc1C(=O)NC(c1ccc(Oc2ccccc2)cc1)C(F)(F)F` (stereo not shown) [I-A-Q2-045], the “log P (HCOOH)” value was “I-A-Q2-045: log P (HCOOH): 5.85”. For `Cc1cc(-n2nc(C(F)(F)F)c(-c3cc(Cl)cc(Cl)c3)c2N)ccc1C(=O)NC1CC1F` (stereo not shown) [I-A-Q2-281], the “log P (HCOOH)” value was “I-A-Q2-281: log P (HCOOH): 3.97”. With `CNC(=O)c1ccc(-n2nc(C(F)(F)F)c(-c3ccc(Cl)cc3)c2N)cc1` [I-A-Q2-195] the “log P (HCOOH)” value was “I-A-Q2-195: log P (HCOOH): 2.96”. For `Cc1cc(-n2nc(C(F)(F)F)c(-c3ccc(F)c(F)c3)c2N)ccc1C(=O)NCC(F)(F)C(F)F` [I-A-Q2-312], the “log P (HCOOH)” value was “I-A-Q2-312: log P (HCOOH): 3.42”. In the case of `CC(NC(=O)c1ccc(-n2nc(C(F)(F)F)c(-c3cccc(F)c3)c2N)cc1)C(F)(F)F` (stereo not shown) [I-A-Q2-182], the “log P (HCOOH)” value was “I-A-Q2-182: log P (HCOOH): 3.33”. With `CCCC(NC(=O)c1ccc(-n2nc(C(F)(F)F)c(-c3cc(Cl)cc(Cl)c3)c2N)cc1)C(F)(F)F` (stereo not shown) [I-A-Q2-071] the “log P (HCOOH)” value was “I-A-Q2-071: log P (HCOOH): 4.95”. In the case of `CC(NC(=O)c1ccc(-n2nc(C(F)(F)F)c(-c3cccc(Br)c3)c2N)cc1)C(F)(F)F` (stereo not shown) [I-A-Q2-172], the “log P (HCOOH)” value was “I-A-Q2-172: log P (HCOOH): 3.73”.

Same assay, conditions: HCOOH; Table 4, compounds of formula I-A-Q4
For `Nc1c(-c2ccc(F)c(F)c2)c(C(F)(F)F)nn1-c1ccc(C(=O)O)cc1` [I-A-Q4-092], the “log P (HCOOH)” value was “I-A-Q4-092: log P (HCOOH): 3.06”. In the case of `CCOC(=O)c1ccc(-n2nc(C(F)(F)F)c(-c3ccc(Cl)cc3Cl)c2N)cc1` [I-A-Q4-085], the “log P (HCOOH)” value was “I-A-Q4-085: log P (HCOOH): 4.57”. For `Nc1c(-c2ccc(F)c(Cl)c2)c(C(F)(F)F)nn1-c1ccc(C(=O)O)cc1` [I-A-Q4-094], the “log P (HCOOH)” value was “I-A-Q4-094: log P (HCOOH): 3.31”. For `Nc1c(-c2ccc(Cl)cc2)c(C(F)F)nn1-c1ccc(Cl)cn1` [I-A-Q4-057], the “log P (HCOOH)” value was “I-A-Q4-057: log P (HCOOH): 4.45”. For `Nc1c(-c2ccc(F)c(F)c2)c(C(F)(F)F)nn1-c1ccc(Cl)cn1` [I-A-Q4-050], the “log P (HCOOH)” value was “I-A-Q4-050: log P (HCOOH): 4.64”. In the case of `Cc1nn(-c2ccc(Cl)cn2)c(N)c1-c1ccc(F)cc1F` [I-A-Q4-035], the “log P (HCOOH)” value was “I-A-Q4-035: log P (HCOOH): 3.78”.

Same assay, conditions: HCOOH; compounds of the formula (IX), Table 11
In the case of `Nc1[nH]nc(C(F)(F)F)c1-c1cc(Cl)cc(Cl)c1` [IX-021], the “log P (HCOOH)” value was “IX-021: log P (HCOOH): 2.91”. For `Nc1[nH]nc(C(F)(F)F)c1-c1ccc(F)cc1` [IX-202], the “log P (HCOOH)” value was “IX-202: log P (HCOOH): 2.16”.

Same assay, conditions: HPLC, reversed-phase C18, mobile phase with formic acid
In the case of `N#Cc1cc(-n2nc(C(F)(F)F)c(-c3cc(F)cc(Cl)c3)c2N)ccc1-n1cncn1` [I-A-Q1-037], the “log P (HCOOH)” value was “I-A-Q1-037: log P (HCOOH): 3.33”. For `Cc1nc(C)n(-c2ccc(-n3nc(C(F)(F)F)c(-c4cc(Cl)cc(Cl)c4)c3N)cc2C#N)n1` [I-A-Q1-083], the “log P (HCOOH)” value was “I-A-Q1-083: log P (HCOOH): 3.84”. In the case of `COc1cnn(-c2ccc(-n3nc(C(F)(F)F)c(-c4cc(Cl)cc(Cl)c4)c3N)cc2C#N)c1` [I-A-Q1-085], the “log P (HCOOH)” value was “I-A-Q1-085: log P (HCOOH): 4.45”. For `Nc1c(-c2cc(Cl)cc(Cl)c2)c(C(F)(F)F)nn1-c1ccc(-n2cncn2)c(C(F)(F)F)c1` [I-A-Q1-068], the “log P (HCOOH)” value was “I-A-Q1-068: log P (HCOOH): 4.32”.

Same assay, conditions: HPLC, reversed-phase C18, mobile phase with formic acid; read-out: log P (HCOOH)
In the case of `CCOC(=O)c1ccc(-n2nc(C(F)(F)F)c(-c3ccc(Cl)c(Cl)c3)c2N)cc1C` [I-A-Q4-013, Ethyl 4-[5-amino-4-(3,4-dichlorophenyl)-3-(trifluoromethyl)-1H-pyrazol-1-yl]-2-methylbenzoate], the chromatographic logP was 5.24.
